According to ChEMBL document CHEMBL1129229, “Synthesis and trypanocidal activity of the bis-carba analogue of pentamidine” (1996):

System: Mus musculus
Test: Effective dose against Trypanosoma brucei S427/118 infection in mice, administered ip after 24 hr
Format: functional

SMILES | ED50
N=C(N)c1ccc(CCCCCCCc2ccc(C(=N)N)cc2)cc1 | 7.3 mg/kg
N=C(N)c1ccc(OCCCCCOc2ccc(C(=N)N)cc2)cc1 [PENTAMIDINE] | 0.38 mg/kg
